Results from ChEMBL document CHEMBL1128456, “Synthesis and biological evaluation of N6-cycloalkyl derivatives of 1-deazaadenine nucleosides: a new class of anti-human immunodeficiency virus agents” (J Med Chem, 1995).

Columns and labels:
Adenosine deaminase = molecular target: T1, Adenosine deaminase (Bos taurus, UniProt P56658); assay: Inhibition calf intestine adenosine deaminase
T1 sequence (P56658 whole entry): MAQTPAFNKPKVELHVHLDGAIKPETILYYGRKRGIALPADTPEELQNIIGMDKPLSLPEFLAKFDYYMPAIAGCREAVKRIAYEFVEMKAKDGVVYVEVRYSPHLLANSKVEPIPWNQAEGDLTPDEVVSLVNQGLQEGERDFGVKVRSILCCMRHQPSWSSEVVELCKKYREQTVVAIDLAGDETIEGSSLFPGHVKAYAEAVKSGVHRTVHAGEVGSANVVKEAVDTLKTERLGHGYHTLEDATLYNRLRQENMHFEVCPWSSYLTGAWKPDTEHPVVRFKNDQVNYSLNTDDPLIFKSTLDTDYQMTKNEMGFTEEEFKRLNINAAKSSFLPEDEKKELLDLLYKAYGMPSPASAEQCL

[1] = test system: Human immunodeficiency virus 1; assay: In vitro evaluation of anti-HIV-1 activity in C8166 cells infected with HIV-1 IIIB.; type: functional; conditions: Human immunodeficiency virus 1, C8166; read-out: ED50 (the source's name)
[2] = In vitro evaluation of cytotoxicity in C8166 cells infected with HIV-1 IIIB.; type: cell-based; conditions: human, read-out: TC50 (the source's name)

Row | SMILES | Ki (Adenosine deaminase) | EC50 [1] | CC50 [2]
1 | OC[C@H]1O[C@@H](n2cnc3c(NC4CCCCCC4)cc(Cl)nc32)C[C@@H]1O | > 100 µM | 0.2 µM | 5 µM
2 | Nc1cc(Cl)nc2c1ncn2C1CCC(CO)O1 (stereo unspecified) | > 100 µM | > 100 µM | > 100 µM
3 | Nc1ncnc2c1ncn2[C@H]1CC[C@@H](CO)O1 | – | 2 µM | > 100 µM
4 | OC[C@H]1O[C@@H](n2cnc3c(NC4CC4)cc(Cl)nc32)[C@H](O)[C@@H]1O | > 100 µM | 30 µM | 500 µM
5 | OCC1CCC(n2cnc3c(NC4CCCCCCC4)cc(Cl)nc32)O1 (stereo unspecified) | > 100 µM | 0.4 µM | 10 µM
6 | OC[C@H]1O[C@@H](n2cnc3c(NC4CCCC4)ccnc32)[C@H](O)[C@@H]1O | > 100 µM | 16 µM | 400 µM
7 | OC[C@H]1OC(n2cnc3c(NC4CCCCCC4)ccnc32)[C@H](O)[C@@H]1O (stereo partly specified) | > 100 µM | 20 µM | 100 µM
8 | OCC1CCC(n2cnc3c(NC4CCCCC4)cc(Cl)nc32)O1 (stereo unspecified) | > 100 µM | 4 µM | 20 µM
9 | OCC1CCC(n2cnc3c(NC4CC4)cc(Cl)nc32)O1 (stereo unspecified) | > 100 µM | > 100 µM | > 100 µM
10 | OC[C@H]1OC(n2cnc3c(NC4CCCCCC4)cc(Cl)nc32)[C@H](O)[C@@H]1O (stereo partly specified) | > 100 µM | 8 µM | 50 µM
11 | OCC1CCC(n2cnc3c(NC4CCC4)cc(Cl)nc32)O1 (stereo unspecified) | > 100 µM | 4 µM | 250 µM
12 | OC[C@H]1O[C@@H](n2cnc3c(NC4CCC4)cc(Cl)nc32)C[C@@H]1O | > 100 µM | 4 µM | 400 µM
13 | OCC1CCC(n2cnc3c(NC4CCCC4)ccnc32)O1 (stereo unspecified) | > 100 µM | 80 µM | 500 µM
14 | OCC1CCC(n2cnc3c(NC4CCCCCCC4)ccnc32)O1 (stereo unspecified) | > 100 µM | 0.8 µM | 10 µM
15 | OCC1CCC(n2cnc3c(NC4CCCCCC4)cc(Cl)nc32)O1 (stereo unspecified) | > 100 µM | 0.8 µM | 8 µM
16 | Nc1ccnc2c1ncn2[C@@H]1O[C@H](CO)[C@@H](O)[C@H]1O | 0.38 µM | > 100 µM | 2 µM
17 | Nc1ccnc2c1ncn2[C@H]1C[C@H](O)[C@@H](CO)O1 | 0.19 µM | > 100 µM | > 100 µM
18 | OC[C@H]1O[C@@H](n2cnc3c(NC4CCCCC4)ccnc32)[C@H](O)[C@@H]1O | > 100 µM | 100 µM | 400 µM
19 | OCC1CCC(n2cnc3c(NC4CCCC4)cc(Cl)nc32)O1 (stereo unspecified) | > 100 µM | 20 µM | 50 µM
20 | OC[C@H]1O[C@@H](n2cnc3c(NC4CCCC4)cc(Cl)nc32)C[C@@H]1O | > 100 µM | 0.8 µM | 7 µM
21 | OC[C@H]1O[C@@H](n2cnc3c(NC4CCCC4)cc(Cl)nc32)[C@H](O)[C@@H]1O | > 100 µM | 10 µM | 100 µM
22 | OC[C@H]1O[C@@H](n2cnc3c(NC4CCCCCCC4)cc(Cl)nc32)C[C@@H]1O | > 100 µM | 2 µM | 40 µM
23 | OC[C@H]1O[C@@H](n2cnc3c(NC4CCCCC4)cc(Cl)nc32)[C@H](O)[C@@H]1O | > 100 µM | 20 µM | 50 µM
24 | OC[C@H]1O[C@@H](n2cnc3c(NC4CCCCC4)cc(Cl)nc32)C[C@@H]1O | > 100 µM | 4 µM | 100 µM

Continued, in another order:

Row | Ki (Adenosine deaminase) | EC50 [1] | SMILES | CC50 [2]
25 | 38 µM | > 100 µM | OC[C@H]1O[C@@H](n2cnc3c(NC4CC4)ccnc32)[C@H](O)[C@@H]1O | > 100 µM
26 | 69 µM | 40 µM | OCC1CCC(n2cnc3c(NC4CCCCC4)ccnc32)O1 (stereo unspecified) | 50 µM
27 | 97 µM | 100 µM | OC[C@H]1O[C@@H](n2cnc3c(NC4CCC4)cc(Cl)nc32)[C@H](O)[C@@H]1O | 400 µM
28 | 23 µM | > 100 µM | Nc1cc(Cl)nc2c1ncn2[C@H]1C[C@H](O)[C@@H](CO)O1 | > 100 µM
29 | 53 µM | 8 µM | OCC1CCC(n2cnc3c(NC4CCCCCC4)ccnc32)O1 (stereo unspecified) | 40 µM
30 | 71 µM | 2 µM | OC[C@H]1OC(n2cnc3c(NC4CCCCCCC4)cc(Cl)nc32)[C@H](O)[C@@H]1O (stereo partly specified) | 40 µM
31 | 78 µM | 100 µM | OCC1CCC(n2cnc3c(NC4CC4)ccnc32)O1 (stereo unspecified) | 750 µM
32 | 30 µM | > 100 µM | Nc1cc(Cl)nc2c1ncn2[C@@H]1O[C@H](CO)[C@@H](O)[C@H]1O | > 100 µM
33 | 69 µM | > 100 µM | CNc1cc(Cl)nc2c1ncn2C1O[C@H](CO)[C@@H](O)[C@H]1O (stereo partly specified) | > 100 µM
34 | 59 µM | 4 µM | OC[C@H]1O[C@@H](n2cnc3c(NC4CCCCCCC4)ccnc32)C[C@@H]1O | 40 µM
35 | 0.25 µM | > 100 µM | CNc1ccnc2c1ncn2[C@H]1C[C@H](O)[C@@H](CO)O1 | > 100 µM
36 | 80 µM | 4 µM | OC[C@H]1OC(n2cnc3c(NC4CCCCCCC4)ccnc32)[C@H](O)[C@@H]1O (stereo partly specified) | 50 µM
37 | 2.2 µM | 50 µM | CNc1ccnc2c1ncn2C1CCC(CO)O1 (stereo unspecified) | 100 µM
38 | 50 µM | > 100 µM | OC[C@H]1O[C@@H](n2cnc3c(NC4CC4)ccnc32)C[C@@H]1O | > 100 µM
39 | 92 µM | 50 µM | OCC1CCC(n2cnc3c(NC4CCC4)ccnc32)O1 (stereo unspecified) | 400 µM
40 | 42 µM | 30 µM | OC[C@H]1O[C@@H](n2cnc3c(NC4CCCCCC4)ccnc32)C[C@@H]1O | 80 µM
41 | 22 µM | 40 µM | OC[C@H]1O[C@@H](n2cnc3c(NC4CCCC4)ccnc32)C[C@@H]1O | 400 µM
42 | 2.5 µM | > 100 µM | Nc1ccnc2c1ncn2C1CCC(CO)O1 (stereo unspecified) | > 100 µM
43 | > 100 µM | 8 µM | OC[C@H]1O[C@@H](n2cnc3c(NC4CCCCC4)ccnc32)C[C@@H]1O | 100 µM
44 | 4.2 µM | > 100 µM | CNc1cc(Cl)nc2c1ncn2[C@H]1C[C@H](O)[C@@H](CO)O1 | > 100 µM
45 | 12 µM | > 100 µM | CNc1ccnc2c1ncn2C1O[C@H](CO)[C@@H](O)[C@H]1O (stereo partly specified) | > 100 µM
46 | 100 µM | > 100 µM | OC[C@H]1O[C@@H](n2cnc3c(NC4CCC4)ccnc32)[C@H](O)[C@@H]1O | > 100 µM
47 | 75 µM | 8 µM | OC[C@H]1O[C@@H](n2cnc3c(NC4CC4)cc(Cl)nc32)C[C@@H]1O | 500 µM
48 | 97 µM | 20 µM | OC[C@H]1O[C@@H](n2cnc3c(NC4CCC4)ccnc32)C[C@@H]1O | 400 µM
49 | 11 µM | > 100 µM | CNc1cc(Cl)nc2c1ncn2C1CCC(CO)O1 (stereo unspecified) | > 100 µM
